Laboratory results from patent publication US20140073700A1, “[…] ACID DERIVATIVES AND METHODS OF USE THEREOF” (AbbVie Inc., priority 2012, published 2014).

The compounds below were run on IFNγ-Induced NO Production in RAW 264.7 cells (assay: Nitric Oxide Suppression Assay (suppression of IFNγ-induced NO production)). Conditions: RAW264.7; RAW 264.7 mouse macrophage cells, 20 ng/mL interferon gamma, Griess detection; single curve fit to mean data of n=2-3.
Type: cell-based
Method: RAW 264.7, a mouse macrophage cell line, was obtained from American Type Culture Collection (Manassas Va.) and maintained in the log phase of growth in Dulbecco's Modified Eagle's Medium (DMEM), 10% heat inactivated fetal calf serum and 100 units/mL antibiotic-antimycotic (AA). Cells were cultured and maintained in a humidified incubator at 37° C. under 5% CO2 and 95% air. Cells were sub-cultured every 3 days by scraping and were not used beyond passage 20. All cell culture supplies were obtained from Life Technologies (Grand Island, N.Y.).
RAW 264.7 cells were plated 1 day in advance of experiment at a concentration of 80,000 cells/well onto CellBIND® 96 well plates (Corning, N.Y.) in a total volume of 100 μL. The next day, pre-treat cells with compounds (from 3 μM to 0.3 nM serially diluted in a 10 point curve) from a 10× stock by adding 10 μL per well in complete DMEM media containing 10% fetal calf serum. The plates were centrifuged for 3 minutes at 400×g at room temperature followed by 2 hour incubation at 37° C. The cells were then incubated overnight at 37° C. with 10 μL of the insult, interferon gamma (R&D Systems, Minneapolis, Minn.), from a 10× stock for a final concentration of 20 ng/mL. The plates were centrifuged for 3 minutes at 400×g at room temperature followed by 18 hour incubation at 37° C. The following day, transfer 50 μL cell culture supernatant from each well into a clear bottom 96 well plate and follow the instructions from Promega's Griess Detection Kit #G2930 (Madison, Wis.) which involves the addition of 50 μL of the provided sulfanilamide solution for a 5-10 minute incubation at room temperature. Next add 50 μL of the provided N-1-napthylethylenediamine dihydrochloride (NED) solution for a 5-10 minute incubation at room temperature and protected from light. If any air bubbles were introduced into the well, the plates need to be centrifuged for 5 minutes at 400×g at room temperature to avoid interference with absorbance readings. The plates were read for absorbance within 30 minutes with a filter between 520 nm and 550 nm.
For the ability of compounds to suppress the increase in nitric oxide release, the percent maximal intensity of nitric oxide detected in each well was normalized to that induced by the peak value for 20 ng/mL of interferon gamma alone and plotted against the compound concentration to calculate IC50 values and to control for plate-to-plate variability. Concentration-response data were analyzed using GraphPad Prism (San Diego, Calif.); the IC50 values were derived from a single curve fit to the mean data of n=2-3, in duplicates.
All compounds were dissolved in dimethyl sulfoxide at 10 mM stock solutions and tested at a concentration that the dimethyl sulfoxide levels never exceeded 1%.

| Structure (SMILES) | IC50 |
| --- | --- |
| COC(=O)[C@@H]1CCCN1C(=O)[C@@]1(C)CC[C@]2(C)CC[C@@]3(C)[C@]4(C)CC[C@H]5C(C)(C)C(=O)C(C#N)=C[C@]5(C)C4=CC(=O)[C@]3(O)[C@@H]2C1 [Example 24, methyl 1-{[(2S,4aS,6aS,6bR,8aR,12aS,14aS,14bR)-11-cyano-14a-hydroxy-2,4a,6a,6b,9,9,12a-heptamethyl-10,14-dioxo-1,2,3,4,4a,5,6,6a,6b,7,8,8a,9,10,12a,14,14a,14b-octadecahydropicen-2-yl]carbonyl}prolinate] | 16.6 nM |
| CCCNC(=O)[C@@]1(C)CC[C@]2(C)CC[C@@]3(C)[C@]4(C)CC[C@H]5C(C)(C)C(=O)C(C#N)=C[C@]5(C)C4=CC(=O)[C@]3(O)[C@@H]2C1 [Example 25, (2S,4aS,6aS,6bR,8aR,12aS,14aS,14bR)-11-cyano-14a-hydroxy-2,4a,6a,6b,9,9,12a-heptamethyl-10,14-dioxo-N-propyl-1,2,3,4,4a,5,6,6a,6b,7,8,8a,9,10,12a,14,14a,14b-octadecahydropicene-2-carboxamide] | 7.8 nM |
| CC1(C)C(=O)C(C#N)=C[C@]2(C)C3=CC(=O)[C@]4(O)[C@@H]5C[C@@](C)(C(=O)NCc6ccco6)CC[C@]5(C)CC[C@@]4(C)[C@]3(C)CC[C@@H]12 [Example 26, (2S,4aS,6aS,6bR,8aR,12aS,14aS,14bR)-11-cyano-N-(2-furylmethyl)-14a-hydroxy-2,4a,6a,6b,9,9,12a-heptamethyl-10,14-dioxo-1,2,3,4,4a,5,6,6a,6b,7,8,8a,9,10,12a,14,14a,14b-octadecahydropicene-2-carboxamide] | 10.2 nM |
| COc1ccc(NC(=O)[C@@]2(C)CC[C@]3(C)CC[C@@]4(C)[C@]5(C)CC[C@H]6C(C)(C)C(=O)C(C#N)=C[C@]6(C)C5=CC(=O)[C@]4(O)[C@@H]3C2)cc1 [Example 27, (2S,4aS,6aS,6bR,8aR,12aS,14aS,14bR)-11-cyano-14a-hydroxy-N-(4-methoxyphenyl)-2,4a,6a,6b,9,9,12a-heptamethyl-10,14-dioxo-1,2,3,4,4a,5,6,6a,6b,7,8,8a,9,10,12a,14,14a,14b-octadecahydropicene-2-carboxamide] | 13.6 nM |
| COCCN(C)C(=O)[C@@]1(C)CC[C@]2(C)CC[C@@]3(C)[C@]4(C)CC[C@H]5C(C)(C)C(=O)C(C#N)=C[C@]5(C)C4=CC(=O)[C@]3(O)[C@@H]2C1 [Example 28, (2S,4aS,6aS,6bR,8aR,12aS,14aS,14bR)-11-cyano-14a-hydroxy-N-(2-methoxyethyl)-N,2,4a,6a,6b,9,9,12a-octamethyl-10,14-dioxo-1,2,3,4,4a,5,6,6a,6b,7,8,8a,9,10,12a,14,14a,14b-octadecahydropicene-2-carboxamide] | 17.4 nM |
| CC1(C)C(=O)C(C#N)=C[C@]2(C)C3=CC(=O)[C@]4(O)[C@@H]5C[C@@](C)(C(=O)NCC#N)CC[C@]5(C)CC[C@@]4(C)[C@]3(C)CC[C@@H]12 [Example 29, (2S,4aS,6aS,6bR,8aR,12aS,14aS,14bR)-11-cyano-N-(cyanomethyl)-14a-hydroxy-2,4a,6a,6b,9,9,12a-heptamethyl-10,14-dioxo-1,2,3,4,4a,5,6,6a,6b,7,8,8a,9,10,12a,14,14a,14b-octadecahydropicene-2-carboxamide] | 16.9 nM |
| CC1(C)C(=O)C(C#N)=C[C@]2(C)C3=CC(=O)[C@]4(O)[C@@H]5C[C@@](C)(C(=O)NCc6ccno6)CC[C@]5(C)CC[C@@]4(C)[C@]3(C)CC[C@@H]12 [Example 30, (2S,4aS,6aS,6bR,8aR,12aS,14aS,14bR)-11-cyano-14a-hydroxy-2,4a,6a,6b,9,9,12a-heptamethyl-N-(1,2-oxazol-5-ylmethyl)-10,14-dioxo-1,2,3,4,4a,5,6,6a,6b,7,8,8a,9,10,12a,14,14a,14b-octadecahydropicene-2-carboxamide] | 12.4 nM |
